Several values for one entry are separate records, joined by “and”; a condition that tells them apart may be missing. Equal entries are not always repeated.
Assays:
E. coli ATCC 9637 [1] = experiment: microbe, parasite or virus in culture
Protocol: (§1) An equal volume of a suspension of either E. coli ATCC 9637 (FIG. 6A) or S. aureus ATCC 13709 (FIG. 6B) in 2× Mueller-Hinton broth was added using an automated liquid dispensing system to a 384 well plate, and bacterial growth was measured by absorptimetry as described in Materials and Methods.
(§2) In this example, E. coli strain 9637 and S. aureus strain 13709 were procured from ATCC (Manassas, Va.). For IM permeability assays, E. coli ML-35 (ATCC 43827), a lactose permease-deficient strain with constitutive cytoplasmic β-galactosidase activity was used (26). Calcium chloride transformation of E. coli ML-35 was performed using the plasmid vector pBR322 (6), encoding tetracycline and ampicillin resistance genes (Promega, Madison, Wis.). The transformed strain, E. coli ML-35p, selected by ampicillin resistance, was utilized for the OM permeabilization assay. E. coli ML-35p was maintained on trypticase soy agar plates with 50 μg/ml of ampicillin.
(§3) Minimum inhibitory concentrations of the acylpolyamines were determined by broth microdilution method (1) as per NCCLS guidelines. Mid-log phase Mueller-Hinton broth (MHB; non-cation supplemented) cultures of organisms (40 μl; OD600nm adjusted to 0.5 AU, and diluted ten-fold) were added to equal volumes of two-fold serially diluted acylpolyamines in a 384-well microtiter plate with the help of a Biotek Precision 2000 automated microplate pipetting system. The MICs of rifampicin, polymyxin B (PMB), polymyxin B nonapeptide (PMBN), naphthylacetyl spermine trihydrochloride and methoctramine tetrahydrochloride (Sigma, St. Louis, Mo.) were included as reference compounds for comparison of activity. The microtiter plates were sealed and incubated overnight at 37° C. The plates were read at an absorbance of 600 nm. The lowest concentration of an agent inhibiting growth of the organisms was recorded as the MIC.

S. aureus ATCC 13709 = experiment: microbe, parasite or virus in culture
Protocol: as §1, §2, §3

human serum albumin = human serum albumin (Homo sapiens, UniProt P02768); experiment: biochemical; settings: KD for HSA, isothermal titration calorimetry; single-site model
[2] = tested on: LPS-induced nitric oxide production in murine macrophages; experiment: NO inhibition, compound solubilized in DMSO or in HSA; type: cell-based, mouse; settings: DMSO vs HSA solubilization (FIG. 7C)
E. coli ATCC 9637 [3] = experiment: Effect of acylpolyamines on MIC of rifampicin (sensitization); type: cell-based, Escherichia coli; set-up: key to Sensitization to Rifampin: fold sensitization = MIC rifampicin alone / MIC with 10 μM compound; settings: E. coli strain 9637 preincubated with 10 μM of compound; MIC of rifampicin
Protocol: E. coli ATCC 9637 was seeded in MH broth in chequerboard format in a 384-well plate containing a constant concentration of compound and varying doses of rifampicin. Bacterial growth was monitored by turbidimetry at 600 nm. PMBN and melittin were used as positive controls. Wells containing no test-compound served as negative control. […] Fold sensitization was calculated as MICRifampicin alone/MICRifampicin+10μM Compound.
Perturbation of the outer membrane permeability barrier greatly sensitizes Gram negative organisms to otherwise impermeable hydrophobic solutes, rifampicin being a classic example To determine the effect of acylpolyamines on the MIC of hydrophobic antibiotic, rifampicin, E. coli strain 9637 was used. Overnight cultures of E. coli grown in MHB preincubated with 10 μM of acylpolyamines were added to serially diluted rifampicin in a 384-well microtiter plate. After incubation at 37° C. overnight, the MIC was determined. Controls included PMBN and melittin (positive) and rifampicin alone (negative). All experiments were run in triplicate.

human whole blood = experiment: Hemolysis in fresh whole human blood (released hemoglobin, 570 nm); type: cell-based; settings: fresh undiluted EDTA human blood, 37° C., 30 min
Protocol: Melittin was used as a positive control.
1:233-245 (2004). Erythrocyte damage was measured using two different techniques. […] Biophys. Acta 1123:269-274 (1992).

[4] = tested on: E. coli ML-35p (OM) / E. coli ML-35 (IM); type: cell-based, Escherichia coli; settings: nitrocefin and ONPG hydrolysis
Protocol: OM permeabilizing activity was determined using E. coli ML-35p (parent i^− z^+ y^− ATCC 43827 transformed with pBR322 vector encoding periplasmic β-lactamase); the leakage of periplasmic β-lactamase activity was quantified using nitrocefin as a chromogenic substrate. IM permeabilizing activity was determined using E. coli ML-35 using o-nitrophenyl-β-D-galactopyranoside as the substrate to determine the β-galactosidase activity. In all experiments, PMB, PMBN, and melittin were used as reference compounds.
Nitrocefin (Calbiochem, San Diego, Calif.) was used for the determination of periplasmic β-lactamase activity since PADAC has been reported to be frequently insensitive to β-lactamase activity in clinically relevant strains of Staphylococcus. […] Harvested mid-log phase cultures of E. coli ML-35p (OD600nm adjusted to 0.5 AU) grown in trypticase soy broth were washed thrice with normal saline (0.9%). Nitrocefin was added to a final concentration of 50 μg/ml to the washed bacterial suspension, which was then added to the serially diluted compounds in a 384-well microtiter plate as described earlier. […] After various times of incubation at 37° C., β-lactamase activity was measured spectrophotometrically at 486 nm using an automated Spectramax M2 instrument (Molecular Devices, Sunnyvale, Calif.).
The IM permeability was measured using o-nitrophenyl-β-D-galactopyranoside (“ONPG”; Sigma, St. Louis, Mo.) as the substrate to determine the β-galactosidase activity. […] Washed cultures of E coli ML-35 mixed with 1.5 mM of ONPG in normal saline (0.9%) were added to serially diluted compounds in a 384-well microtiter plate. PMBN and melittin were used as the controls. The production of o-nitrophenol was quantified absorptimetrically at 420 nm after an incubation period of 1 hour at 37° C.
OM and IM permeability were determined respectively from dose-response curves of nitrocefin and ONPG hydrolysis rates as described in Lehrer et al., Concurrent assessment of inner and outer membrane permeabilization and bacteriolysis in E. coli by multiple-wavelength spectrophotometry, J. Immunol.

Sequence of human serum albumin (P02768 25-609): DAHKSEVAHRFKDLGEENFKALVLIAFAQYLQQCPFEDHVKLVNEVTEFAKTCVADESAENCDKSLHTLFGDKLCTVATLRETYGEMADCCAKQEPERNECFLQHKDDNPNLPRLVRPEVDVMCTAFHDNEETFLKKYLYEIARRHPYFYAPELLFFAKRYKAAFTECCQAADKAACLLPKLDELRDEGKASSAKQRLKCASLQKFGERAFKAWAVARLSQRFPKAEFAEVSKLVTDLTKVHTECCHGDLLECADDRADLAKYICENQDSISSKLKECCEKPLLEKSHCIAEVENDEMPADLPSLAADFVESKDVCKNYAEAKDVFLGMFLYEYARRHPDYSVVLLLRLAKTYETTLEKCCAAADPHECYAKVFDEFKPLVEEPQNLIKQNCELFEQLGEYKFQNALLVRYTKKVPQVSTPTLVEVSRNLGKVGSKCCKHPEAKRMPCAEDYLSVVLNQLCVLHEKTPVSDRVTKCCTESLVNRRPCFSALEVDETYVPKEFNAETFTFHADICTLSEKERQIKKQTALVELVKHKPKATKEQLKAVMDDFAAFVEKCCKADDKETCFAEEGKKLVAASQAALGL

Compound	MIC (E. coli ATCC 9637 [1]; Escherichia coli, ATCC9637)	MIC (S. aureus ATCC 13709; Staphylococcus aureus, ATCC13709)	Kd (human serum albumin)	potency of NO inhibition solubilized in DMSO or in HSA [2]	Sensitization to Rifampin (E. coli ATCC 9637 [3])	MIC (E. coli ATCC 9637 [1]; E. coli ATCC 9637, Mueller-Hinton broth, overnight 37° C.)	MIC (S. aureus ATCC 13709; S. aureus ATCC 13709, Mueller-Hinton broth, overnight 37° C.)	hemolysis in human whole blood (human whole blood)	membrane-permeabilizing activity (OM and IM) [4]
CCCCCCCCCCCCCCC(=O)NCCCNCCCNCCCCNCCCN [Compound 4e]	31.2 µM and 29.3 µg/mL	15.6 µM and 14.6 µg/mL	1980 nM and ~2000 nM	identical potency	7.81	–	–	–	–
CC[C@H](C)[C@H](NC(=O)CN)C(=O)NCC(=O)N[C@@H](C)C(=O)N[C@H](C(=O)N[C@@H](CC(C)C)C(=O)N[C@@H](CCCCN)C(=O)N[C@H](C(=O)N[C@@H](CC(C)C)C(=O)N[C@H](C(=O)N[C@H](C(=O)NCC(=O)N[C@@H](CC(C)C)C(=O)N1CCC[C@H]1C(=O)N[C@@H](C)C(=O)N[C@@H](CC(C)C)C(=O)N[C@H](C(=O)N[C@@H](CO)C(=O)N[C@@H](Cc1c[nH]c2ccccc12)C(=O)N[C@H](C(=O)N[C@@H](CCCCN)C(=O)N[C@@H](CCCNC(=N)N)C(=O)N[C@@H](CCCCN)C(=O)N[C@@H](CCCNC(=N)N)C(=O)N[C@@H](CCC(N)=O)C(=O)N[C@@H](CCC(N)=O)C(N)=O)[C@@H](C)CC)[C@@H](C)CC)[C@@H](C)O)[C@@H](C)O)C(C)C)C(C)C [Melittin, melittin, reference compound]	–	–	–	–	–	175 μM and 498.1 μg/ml	5.5 μM and 15.6 μg/ml	caused hemolysis at low micromolar concentrations	potently membrane-permeabilizing

Source: patent publication US20070197658A1, “Polyamines and their use as antibacterial and sensitizing agents” (priority 2006, published 2007)
